Values of other authors in patent US7482343B2, “Compounds, methods and compositions” (Cytokinetics, Inc., priority 2002, dated 2009).

Tested on: A549 cells
Conditions: data provided by National Cancer Institute

| Compound | GI50 [nM] |
| --- | --- |
| O=c1[nH]cc(F)c(=O)[nH]1 [5-fluorouracil] | 1000 |
| COc1cccc2c1C(=O)c1c(O)c3c(c(O)c1C2=O)C[C@@](O)(C(=O)CO)C[C@@H]3O[C@H]1C[C@H](N)[C@H](O)[C@H](C)O1 [doxorubicin] | 63 |
| NC(=O)NO [hydroxyurea] | 500000 |
| CC(=O)O[C@H]1C(=O)[C@@]2(C)[C@H]([C@H](OC(=O)c3ccccc3)[C@]3(O)C[C@H](OC(=O)[C@H](O)[C@@H](NC(=O)c4ccccc4)c4ccccc4)C(C)=C1C3(C)C)[C@]1(OC(C)=O)CO[C@@H]1C[C@@H]2O [paclitaxel] | 4 |
